Experimental data taken from patent US20090036448A1, “PYRIMIDINE DERIVATIVES AND METHODS OF TREATMENT RELATED TO THE USE THEREOF” (TAISHO PHARMECUTICAL CO., LTD., priority 2004, published 2009).

Molecular target: MCH receptor (Homo sapiens, UniProt Q99705)
Assay: Receptor binding assay with Radiolabelled MCH Ligand
Parameters: expressed in transfected cells; host or cells: 293 cells (human kidney, ATCC), transient transfection; crude membranes
Settings: class by percent of control at 10^-7 M or IC50
Description: In addition to the methods described herein, another means for evaluating a test compound is by determining binding affinities to the MCH receptor. This type of assay generally requires a radiolabelled ligand to the MCH receptor. Absent the use of known ligands for the MCH receptor and radiolabels thereof, compounds of Formula (I) can be labelled with a radioisotope and used in an assay for evaluating the affinity of a test compound to the MCH receptor.
A radiolabelled MCH compound of Formula (I) can be used in a screening assay to identify/evaluate compounds. In general terms, a newly synthesized or identified compound (i.e., test compound) can be evaluated for its ability to reduce binding of the “radiolabelled compound of Formula (I)” to the MCH receptor. Accordingly, the ability to compete with the “radio-labelled compound of Formula (I)” or Radiolabelled MCH Ligand for the binding to the MCH receptor directly correlates to its binding affinity of the test compound to the MCH receptor.
293 cells (human kidney, ATCC), transiently transfected with 10 μg human MCH receptor and 60 μl Lipofectamine (per 15-cm dish), are grown in the dish for 24 hours (75% confluency) with a media change and removed with 10 mL/dish of Hepes-EDTA buffer (20 mM Hepes+10 mM EDTA, pH 7.4). The cells are then centrifuged in a Beckman Coulter centrifuge for 20 minutes, 17,000 rpm (JA-25.50 rotor). Subsequently, the pellet is resuspended in 20 mM Hepes+1 mM EDTA, pH 7.4 and homogenized with a 50-mL Dounce homogenizer and again centrifuged. After removing the supernatant, the pellets can be stored at −80° C., until used in binding assay. When used in the assay, membranes are thawed on ice for 20 minutes and then 10 mL of incubation buffer (20 mM Hepes, 1 mM MgCl2, 100 mM NaCl, pH 7.4) added. The membranes are then vortexed to resuspend the crude membrane pellet and homogenized with a Brinkmann PT-3100 Polytron homogenizer for 15 seconds at setting 6. The concentration of membrane protein is determined using the BRL Bradford protein assay.
For total binding, a total volume of 50 ul of appropriately diluted membranes (diluted in assay buffer containing 50 mM Tris HCl (pH 7.4), 1 mM MgCl2, and 1 mM EDTA; 5-50 ug protein) is added to 96-well polyproylene microtiter plates followed by addition of 100 μl of assay buffer and 50 μl of Radiolabelled MCH Ligand. For nonspecific binding, 50 μl of assay buffer is added instead of 100 μl and an additional 50 μl of 10 uM cold MCH is added before 50 μl of Radiolabelled MCH Ligand is added. Plates are then incubated at room temperature for 60-120 minutes. The binding reaction is terminated by filtering assay plates through a Microplate Devices GF/C Unifilter filtration plate with a Brandell 96-well plate harvester followed by washing with cold 50 mM Tris HCl, pH 7.4 containing 0.9% NaCl. Then, the bottom of the filtration plate are sealed, 50 ul of Optiphase Supermix is added to each well, the top of the plates are sealed, and plates are counted in a Trilux MicroBeta scintillation counter. For compound competition studies, instead of adding 100 μl of assay buffer, 100 μl of appropriately diluted test compound is added to appropriate wells followed by addition of 50 μl of Radiolabelled MCH Ligand.
The test compounds are initially assayed at 1 and 0.1 μM and then at a range of concentrations chosen such that the middle dose would cause about 50% inhibition of a Radiolabelled MCH Ligand binding (i.e., IC50). Specific binding in the absence of test compound (BO) is the difference of total binding (BT) minus non-specific binding (NSB) and similarly specific binding (in the presence of test compound) (B) is the difference of displacement binding (BD) minus non-specific binding (NSB). IC50 is determined from an inhibition response curve, logit-log plot of % B/BO vs. concentration of test compound.
Ki is calculated by the Cheng and Prustoff transformation: […]

MCH receptor, sequence (Q99705 whole entry): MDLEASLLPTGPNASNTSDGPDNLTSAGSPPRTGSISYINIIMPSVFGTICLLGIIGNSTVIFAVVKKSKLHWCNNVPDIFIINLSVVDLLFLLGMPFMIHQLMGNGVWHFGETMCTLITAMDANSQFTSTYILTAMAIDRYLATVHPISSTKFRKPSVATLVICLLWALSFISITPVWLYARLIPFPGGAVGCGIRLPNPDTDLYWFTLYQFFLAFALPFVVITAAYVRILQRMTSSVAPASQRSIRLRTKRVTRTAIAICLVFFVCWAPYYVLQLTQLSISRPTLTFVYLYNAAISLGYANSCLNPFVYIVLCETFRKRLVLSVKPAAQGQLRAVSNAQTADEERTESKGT

Compound	class
Cc1nc(N[C@H]2CC[C@@H](NC(=O)c3cnn(-c4ccccc4)c3C(F)(F)F)CC2)cc(N(C)C)n1 [compound 238]	3 (Class 3: The value of percent of control at 10^−7 M was more than 60% or the value of IC50 was more than 200 nM.)
Cc1nc(N[C@H]2CC[C@@H](NC(=O)COc3ccccc3[N+](=O)[O-])CC2)cc(N(C)C)n1 [compound 239]	3 (Class 3: The value of percent of control at 10^−7 M was more than 60% or the value of IC50 was more than 200 nM.)
Cc1nc(N[C@H]2CC[C@@H](NC(=O)c3cnc4ccccc4n3)CC2)cc(N(C)C)n1 [compound 240]	3 (Class 3: The value of percent of control at 10^−7 M was more than 60% or the value of IC50 was more than 200 nM.)
Cc1nc(N[C@H]2CC[C@@H](NC(=O)c3cccc(C(F)(F)F)c3)CC2)cc(N(C)C)n1 [compound 241, N-(cis-4-{[6-(dimethylamino)-2-methylpyrimidin-4-yl]amino}cyclohexyl)-3-(trifluoromethyl)benzamide]	3 (Class 3: The value of percent of control at 10^−7 M was more than 60% or the value of IC50 was more than 200 nM.)
Cc1ccc(C(=O)N[C@H]2CC[C@@H](Nc3cc(N(C)C)nc(C)n3)CC2)cc1 [compound 242]	3 (Class 3: The value of percent of control at 10^−7 M was more than 60% or the value of IC50 was more than 200 nM.)
Cc1nc(N[C@H]2CC[C@@H](NC(=O)c3cccs3)CC2)cc(N(C)C)n1 [compound 243]	3 (Class 3: The value of percent of control at 10^−7 M was more than 60% or the value of IC50 was more than 200 nM.)
Cc1nc(N[C@H]2CC[C@@H](NC(=O)COc3c(F)c(F)c(F)c(F)c3F)CC2)cc(N(C)C)n1 [compound 244]	3 (Class 3: The value of percent of control at 10^−7 M was more than 60% or the value of IC50 was more than 200 nM.)
COc1ccc(CC(=O)N[C@H]2CC[C@@H](Nc3cc(N(C)C)nc(C)n3)CC2)cc1OC [compound 245]	3 (Class 3: The value of percent of control at 10^−7 M was more than 60% or the value of IC50 was more than 200 nM.)
Cc1nc(N[C@H]2CC[C@@H](NC(=O)CSc3ccccc3)CC2)cc(N(C)C)n1 [compound 246]	3 (Class 3: The value of percent of control at 10^−7 M was more than 60% or the value of IC50 was more than 200 nM.)
Cc1nc(N[C@H]2CC[C@@H](NC(=O)c3cccc4c3-c3ccccc3C4=O)CC2)cc(N(C)C)n1 [compound 247]	3 (Class 3: The value of percent of control at 10^−7 M was more than 60% or the value of IC50 was more than 200 nM.)
Cc1nc(N[C@H]2CC[C@@H](NC(=O)c3ccc(OC(F)(F)F)cc3)CC2)cc(N(C)C)n1 [compound 248]	3 (Class 3: The value of percent of control at 10^−7 M was more than 60% or the value of IC50 was more than 200 nM.)
Cc1nc(N[C@H]2CC[C@@H](NC(=O)c3ccc(F)cc3C(F)(F)F)CC2)cc(N(C)C)n1 [compound 249]	3 (Class 3: The value of percent of control at 10^−7 M was more than 60% or the value of IC50 was more than 200 nM.)
Cc1nc(N[C@H]2CC[C@@H](NC(=O)Cc3ccc(F)cc3)CC2)cc(N(C)C)n1 [compound 250]	3 (Class 3: The value of percent of control at 10^−7 M was more than 60% or the value of IC50 was more than 200 nM.)
CCCCCCCOc1ccc(C(=O)N[C@H]2CC[C@@H](Nc3cc(N(C)C)nc(C)n3)CC2)cc1 [compound 251]	3 (Class 3: The value of percent of control at 10^−7 M was more than 60% or the value of IC50 was more than 200 nM.)
CCCCCc1ccc(C(=O)N[C@H]2CC[C@@H](Nc3cc(N(C)C)nc(C)n3)CC2)cc1 [compound 252]	3 (Class 3: The value of percent of control at 10^−7 M was more than 60% or the value of IC50 was more than 200 nM.)
Cc1nc(N[C@H]2CC[C@@H](NC(=O)C3CCCC3)CC2)cc(N(C)C)n1 [compound 253, N-(cis-4-{[6-(dimethylamino)-2-methylpyrimidin-4-yl]amino}cyclohexyl)cyclopentanecarboxamide]	3 (Class 3: The value of percent of control at 10^−7 M was more than 60% or the value of IC50 was more than 200 nM.)
CCCCCCCCCc1ccc(C(=O)N[C@H]2CC[C@@H](Nc3cc(N(C)C)nc(C)n3)CC2)cc1 [compound 254]	3 (Class 3: The value of percent of control at 10^−7 M was more than 60% or the value of IC50 was more than 200 nM.)
Cc1nc(N[C@H]2CC[C@@H](NC(=O)COc3ccc(C(C)(C)C)cc3)CC2)cc(N(C)C)n1 [compound 255]	3 (Class 3: The value of percent of control at 10^−7 M was more than 60% or the value of IC50 was more than 200 nM.)
Cc1nc(N[C@H]2CC[C@@H](NC(=O)c3ccc(F)c(Cl)c3)CC2)cc(N(C)C)n1 [compound 256, 3-chloro-N-(cis-4-{[6-(dimethylamino)-2-methylpyrimidin-4-yl]amino}cyclohexyl)-4-fluorobenzamide]	1 (Class 1: The value of percent of control at 10^−7 M was less than 40% or the value of IC50 was less than 50 nM.)
Cc1nc(N[C@H]2CC[C@@H](NC(=O)CC3CCCC3)CC2)cc(N(C)C)n1 [compound 257]	3 (Class 3: The value of percent of control at 10^−7 M was more than 60% or the value of IC50 was more than 200 nM.)
Cc1nc(N[C@H]2CC[C@@H](NC(=O)CCc3ccccc3)CC2)cc(N(C)C)n1 [compound 258]	3 (Class 3: The value of percent of control at 10^−7 M was more than 60% or the value of IC50 was more than 200 nM.)
Cc1nc(N[C@H]2CC[C@@H](NC(=O)c3ccc(C#N)cc3)CC2)cc(N(C)C)n1 [compound 259]	3 (Class 3: The value of percent of control at 10^−7 M was more than 60% or the value of IC50 was more than 200 nM.)
Cc1nc(NC2CCC(NC(=O)C(Cc3ccccc3)NS(=O)(=O)c3cccc4ccccc34)CC2)cc(N(C)C)n1 (stereo not drawn) [compound 260]	3 (Class 3: The value of percent of control at 10^−7 M was more than 60% or the value of IC50 was more than 200 nM.)
Cc1nc(N[C@H]2CC[C@@H](NC(=O)c3ccc(SC(F)(F)F)cc3)CC2)cc(N(C)C)n1 [compound 261]	3 (Class 3: The value of percent of control at 10^−7 M was more than 60% or the value of IC50 was more than 200 nM.)
Cc1nc(N[C@H]2CC[C@@H](NC(=O)/C=C/c3cccc(C(F)(F)F)c3)CC2)cc(N(C)C)n1 [compound 262]	3 (Class 3: The value of percent of control at 10^−7 M was more than 60% or the value of IC50 was more than 200 nM.)
Cc1nc(N[C@H]2CC[C@@H](NC(=O)/C=C/c3ccc([N+](=O)[O-])cc3)CC2)cc(N(C)C)n1 [compound 263]	3 (Class 3: The value of percent of control at 10^−7 M was more than 60% or the value of IC50 was more than 200 nM.)
Cc1nc(N[C@H]2CC[C@@H](NC(=O)Cc3ccccc3Br)CC2)cc(N(C)C)n1 [compound 264]	3 (Class 3: The value of percent of control at 10^−7 M was more than 60% or the value of IC50 was more than 200 nM.)
Cc1nc(N[C@H]2CC[C@@H](NC(=O)/C=C/c3ccccc3Cl)CC2)cc(N(C)C)n1 [compound 265]	3 (Class 3: The value of percent of control at 10^−7 M was more than 60% or the value of IC50 was more than 200 nM.)
Cc1nc(N[C@H]2CC[C@@H](NC(=O)c3cccnc3Sc3ccccc3)CC2)cc(N(C)C)n1 [compound 266]	3 (Class 3: The value of percent of control at 10^−7 M was more than 60% or the value of IC50 was more than 200 nM.)
Cc1nc(N[C@H]2CC[C@@H](NC(=O)c3cc(C(C)(C)C)nn3Cc3ccccc3)CC2)cc(N(C)C)n1 [compound 267]	3 (Class 3: The value of percent of control at 10^−7 M was more than 60% or the value of IC50 was more than 200 nM.)
